Measured values: patent US12448394B2, “Heterocyclic pyrazole derivatives as type III receptor tyrosine kinase inhibitors” (DEVELOPMENT CENTER FOR BIOTECHNOLOGY, priority 2019, dated 2025)
pIC50: −log10 of the molar value.

Biological target: T1, FLT3-D835Y mutant kinase (Homo sapiens, UniProt P36888, D835Y)
T1 construct: purchased SignalChem
T1 sequence (P36888 27-993 D835Y): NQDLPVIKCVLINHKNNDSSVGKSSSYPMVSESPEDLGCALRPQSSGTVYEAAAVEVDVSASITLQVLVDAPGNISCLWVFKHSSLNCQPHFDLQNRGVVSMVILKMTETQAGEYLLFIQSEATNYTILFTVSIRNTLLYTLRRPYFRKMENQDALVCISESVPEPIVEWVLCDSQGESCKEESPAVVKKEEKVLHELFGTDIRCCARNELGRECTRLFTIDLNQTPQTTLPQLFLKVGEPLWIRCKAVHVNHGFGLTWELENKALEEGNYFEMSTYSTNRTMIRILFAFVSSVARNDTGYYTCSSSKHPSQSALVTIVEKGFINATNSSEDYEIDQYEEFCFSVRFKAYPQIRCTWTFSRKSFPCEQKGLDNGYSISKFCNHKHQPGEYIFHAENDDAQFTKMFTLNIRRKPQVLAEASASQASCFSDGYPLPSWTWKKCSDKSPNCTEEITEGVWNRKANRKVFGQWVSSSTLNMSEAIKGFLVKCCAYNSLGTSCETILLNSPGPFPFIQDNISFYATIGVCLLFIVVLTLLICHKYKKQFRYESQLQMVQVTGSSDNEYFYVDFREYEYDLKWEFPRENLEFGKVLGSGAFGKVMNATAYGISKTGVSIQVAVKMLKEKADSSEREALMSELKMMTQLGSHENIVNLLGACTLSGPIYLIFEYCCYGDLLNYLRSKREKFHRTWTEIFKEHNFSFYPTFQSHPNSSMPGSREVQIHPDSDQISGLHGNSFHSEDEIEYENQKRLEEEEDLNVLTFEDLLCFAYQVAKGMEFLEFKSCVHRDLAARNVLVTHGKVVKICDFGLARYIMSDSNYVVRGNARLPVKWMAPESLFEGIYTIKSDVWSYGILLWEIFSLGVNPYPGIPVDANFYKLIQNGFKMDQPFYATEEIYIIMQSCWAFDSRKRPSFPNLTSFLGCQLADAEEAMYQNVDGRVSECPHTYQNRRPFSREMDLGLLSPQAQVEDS
Assay: FLT3-D835Y mutant kinase assay (AlphaScreen)
Type: biochemical
Details: read-out: Ranking of IC50 values, FLT3-D835Y
Summary of the method: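 Recombinant FLT3-D835Y (1 ng) phosphorylated biotin-poly(Glu4:Tyr1) at 10 μM ATP, pH 7.0 MOPS buffer with 10 mM MgCl2, for 30 min at 30 °C, stopped with EDTA. Product was read by AlphaScreen. IC50 came from serial dilutions run in duplicate.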

**Q.** `COc1ccc(-c2cc3c(s2)Cc2c(-c4ccc5cnn(C)c5c4)n[nH]c2-3)cn1` [Compound 4, 6-(6-methoxypyridin-3-yl)-3-(1-methyl-1H-indazol-6-yl)-1,4-dihydrothieno [2′,3′:4,5]cyclopenta[1,2-c] pyrazole] was tested. Which pIC50 did it give?
**A.** > 9.00

**Q.** With `Cc1n[nH]c2cc(-c3n[nH]c4c3Cc3sc(-c5ccc(CN6CCOCC6)cc5)cc3-4)ccc12` [Compound 81, 4-(4-(3-(3-methyl-1H-indazol-6-yl)-1,4-dihydro-thieno[2′,3′:4,5]cyclopenta [1,2-c]pyrazol-6-yl)benzyl)morpholine] as the molecule, how does the pIC50 read?
**A.** 8.00 to 9.00

**Q.** `Cn1ncc2ccc(-c3n[nH]c4c3Cc3sc(-c5ccc(N6CCOCC6)nc5)cc3-4)cc21` [Compound 82, 4-(5-(3-(1-methyl-1H-indazol-6-yl)-1,4-dihydro-thieno[2′,3′:4,5]cyclopenta [1,2-c]pyrazol-6-yl)pyridin-2-yl)morpholine] was tested. Which pIC50 did it give?
**A.** 8.00 to 9.00

**Q.** With `CN1CCN(Cc2ccc(-c3cc4c(s3)Cc3c(-c5ccc6cn[nH]c6c5)n[nH]c3-4)cc2)CC1` [Compound 83, 3-(1H-indazol-6-yl)-6-(4-((4-methylpiperazin-1-yl)methyl)phenyl)-1,4-dihydrothieno[2′,3′:4,5] cyclopenta[1,2-c]pyrazole] as the molecule, how does the pIC50 read?
**A.** > 9.00

**Q.** With `CN1CCN(Cc2ccc(-c3cc4c(s3)Cc3c(-c5ccc6cnn(C)c6c5)n[nH]c3-4)cc2)CC1` [Compound 84, 3-(1-methyl-1H-indazol-6-yl)-6-(4-((4-methylpiperazin-1-yl)methyl)phenyl)-1,4-dihydrothieno [2′,3′:4,5]cyclopenta [1,2-c]pyrazole] as the molecule, how does the pIC50 read?
**A.** > 9.00

**Q.** How did the pIC50 turn out when `CN1CCN(c2ccc(-c3cc4c(s3)Cc3c(-c5ccc6cnn(C)c6c5)n[nH]c3-4)cn2)CC1` [Compound 85, 3-(1-methyl-1H-indazol-6-yl)-6-(6-(4-methyl-piperazin-1-yl)pyridin-3-yl)-1,4-dihydrothieno [2′,3′:4,5]cyclopenta [1,2-c]pyrazole] was run?
**A.** > 9.00

**Q.** With `Cn1ncc2ccc(-c3n[nH]c4c3Cc3sc(-c5ccnc(Cl)c5)cc3-4)cc21` [Compound 86, 6-(2-chloropyridin-4-yl)-3-(1-methyl-1H-indazol-6-yl)-1,4-dihydrothieno [2′,3′:4,5]cyclopenta [1,2-c]pyrazole] as the molecule, how does the pIC50 read?
**A.** 8.00 to 9.00

**Q.** With `CN1CCN(c2cc(-c3cc4c(s3)Cc3c(-c5ccc6cnn(C)c6c5)n[nH]c3-4)ccn2)CC1` [Compound 87, 3-(1-methyl-1H-indazol-6-yl)-6-(2-(4-methyl-piperazin-1-yl)pyridin-4-yl)-1,4-dihydrothieno [2′,3′:4,5]cyclopenta [1,2-c]pyrazole] as the molecule, how does the pIC50 read?
**A.** > 9.00

**Q.** `Cn1ncc2ccc(-c3n[nH]c4c3Cc3sc(-c5ccc(CN6CCOCC6)c(F)c5F)cc3-4)cc21` [Compound 88, 4-(2,3-difluoro-4-(3-(1-methyl-1H-indazol-6-yl)-1,4-dihydrothieno [2′,3′:4,5]cyclopenta [1,2-c]pyrazol-6-yl)benzyl)morpholine] was tested. Which pIC50 did it give?
**A.** 8.00 to 9.00

**Q.** `Cn1nnc2ccc(-c3n[nH]c4c3Cc3sc(-c5ccc(CN6CCOCC6)cc5)cc3-4)cc21` [Compound 89, 4-(4-(3-(1-methyl-1H-benzo[d][1,2,3]triazol-6-yl)-1,4-dihydrothieno [2′,3′:4,5]cyclopenta [1,2-c]pyrazol-6-yl)benzyl)morpholine] was tested. Which pIC50 did it give?
**A.** 8.00 to 9.00

**Q.** With `Cn1ncc2ccc(-c3n[nH]c4c3Cc3sc(-c5ccc(CN6CCOCC6)cc5OC(F)(F)F)cc3-4)cc21` [Compound 90, 4-(4-(3-(1-methyl-1H-indazol-6-yl)-1,4-dihydro-thieno[2′,3′:4,5]cyclopenta [1,2-c]pyrazol-6-yl)-3-(trifluoromethoxy)benzyl) morpholine] as the molecule, how does the pIC50 read?
**A.** 8.00 to 9.00

**Q.** With `Cc1cc(CN2CCOCC2)ccc1-c1cc2c(s1)Cc1c(-c3ccc4cnn(C)c4c3)n[nH]c1-2` [Compound 91, 4-(3-methyl-4-(3-(1-methyl-1H-indazol-6-yl)-1,4-dihydrothieno [2′,3′:4,5]cyclopenta [1,2-c]pyrazol-6-yl)benzyl)morpholine] as the molecule, how does the pIC50 read?
**A.** 8.00 to 9.00

**Q.** How did the pIC50 turn out when `Cn1ncc2ccc(-c3n[nH]c4c3Cc3sc(-c5ccc(N)nc5)cc3-4)cc21` [Compound 92, 5-(3-(1-methyl-1H-indazol-6-yl)-1,4-dihydro-thieno[2′,3′:4,5]cyclopenta [1,2-c]pyrazol-6-yl) pyridin-2-amine] was run?
**A.** > 9.00

**Q.** How did the pIC50 turn out when `CN(C)Cc1ccc(-c2cc3c(s2)Cc2c(-c4ccc5cnn(C)c5c4)n[nH]c2-3)cn1` [Compound 93, N,N-dimethyl-1-(5-(3-(1-methyl-1H-indazol-6-yl)-1,4-dihydrothieno [2′,3′:4,5]cyclopenta [1,2-c]pyrazol-6-yl)pyridin-2-yl)methanamine] was run?
**A.** 8.00 to 9.00

**Q.** How did the pIC50 turn out when `CN(C)Cc1ccc(-c2cc3c(s2)Cc2c(-c4ccc5cnn(C)c5c4)n[nH]c2-3)cc1` [Compound 94, N,N-dimethyl-1-(4-(3-(1-methyl-1H-indazol-6-yl)-1,4-dihydrothieno [2′,3′:4,5]cyclopenta [1,2-c]pyrazol-6-yl)phenyl)methanamine] was run?
**A.** 8.00 to 9.00
